Results published in US20260069552A1, “Methods of Providing a Cooling Sensation to Skin Afflicted with Eczema” (Kenvue Brands LLC, priority 2022, published 2026).

System: Staphylococcus epidermidis (ATCC 12228)
Assay: In vitro bacteria competition assay (co-culture)
Type: cell-based
Conditions: 1:1 co-culture with S. aureus in Nutrient Broth, 24 hours aerobic, CFU/mL; versus untreated; w/v % as in label; n=3
Protocol: In vitro bacteria competition assay evaluated Staphylococcus epidermidis (ATCC 12228, skin health associated strain) and Staphylococcus aureus (ATCC 6538, human lesion isolate) co-culture in the presence of test materials. Percentages are w/v % in liquid medium (Nutrient Broth, Culture Media and Supplies Inc.) To mimic the microenvironment of the skin surface, an aerobic, co-culture system of S. epidermidis and S. aureus was established. 50 μL S. epidermidis and 50 μL S. aureus (a 1:1 ratio) were inoculated (50 μL at approximately 5.0×10^6 CFU/mL each) in Nutrient Broth and in the presence of the test materials as specified in Table 14 below. [table] Test groups were incubated aerobically for 24 hours (n=3 per test group) After 24 hours, each test group was plated onto agar and incubated aerobically for 24 hours […]. After incubation, colonies were counted, and CFU/mL calculated. S. epidermidis and S. aureus colonies were differentiated on agar (Tryptic Soy Agar+5% sheep's blood, BD Diagnostics) based on representative morphology.

CC(O)C(=O)O (stereo not shown) [Lactic Acid (1.1%), Lactic acid]
S. epidermidis growth in bacteria competition assay: inhibited
